Experimental data from patent publication US20250170155A1, “NUCLEOSIDE DERIVATIVES AND PRODRUGS THEREOF HAVING VIRAL GROWTH INHIBITORY ACTION” (Shionogi & Co., Ltd., priority 2021, published 2025).

Assay: Lung distribution test
Type: in vivo
Settings: SD rats, 8 hours after oral administration (25 mg/kg); for concentration at 8 h: rat, read-out: Prodrug form concentration (lung)
Experimental: Test Example 5: Lung Distribution Test
Materials and methods for experiments • (1) Animals used: SD rats are used. • (2) Rearing conditions: the SD rats are allowed to freely take solid feed and sterilized tap water. • (3) Dose and grouping setting: a given dose is orally administered. Grouping is set as below.
Oral administration: 1 to 100 mg/kg (n=2 to 3) • (4) The test sample is orally administered in a form of solution or suspension. • (5) Administration method: the test sample is forcedly administered into the stomach through an oral probe for the oral administration. • (6) Evaluation items: Blood and lung are collected, and the concentrations of the compound of the present invention in plasma and lung are measured using LC/MS/MS.
Lung concentrations of Compound I-057 as an active form and Compound I-077 as a prodrug form thereof 8 hours after they were orally administered (25 mg/kg) are shown below.
In addition, lung concentrations of other prodrug forms 8 hours after they were orally administered (25 mg/kg) are shown below.

| Structure (SMILES) | concentration at 8 h | Active form concentration (lung) |
| --- | --- | --- |
| CC(C)(C)CC(=O)OC[C@H]1N[C@@H](c2cc(C(N)=O)c3c(N)ncnn23)[C@H](O)[C@@H]1O [Compound I-058] | 12.7 ng/g | – |
| CC(C)(C(=O)OC[C@H]1N[C@@H](c2cc(C(N)=O)c3c(N)ncnn23)[C@H](O)[C@@H]1O)c1ccccc1 [Compound I-072] | 6.41 ng/g | – |
| CCC(CC)C(=O)OC[C@H]1N[C@@H](c2cc(C(N)=O)c3c(N)ncnn23)[C@H](O)[C@@H]1O [Compound I-054] | – | 6480 ng/g |
| CCC(C)(C)C(=O)OC[C@H]1N[C@@H](c2cc(C(N)=O)c3c(N)ncnn23)[C@H](O)[C@@H]1O [Compound I-063] | 3.85 ng/g | – |
